According to DBAASP:
Converted amounts (≈) assume the structure as drawn.

Key:
Experiment in all cases: ≥ marks a high value that may be exact or a test limit, other limits are often not marked, values filed in µg/mL are converted to µM
[1] = system: Bacillus subtilis
[2] = system: Candida albicans
[3] = system: Cryptococcus neoformans
[4] = system: Escherichia coli
[5] = system: Pseudomonas putida
[6] = system: Saccharomyces cerevisiae
[7] = system: Salmonella typhimurium
[8] = system: Serratia marcescens
[9] = system: Staphylococcus aureus
[10] = system: Streptococcus mutans
[11] = system: Streptococcus pneumoniae
[12] = system: Bacillus subtilis ATCC 23857
[13] = system: Cryptococcus neoformans ATCC 28957
[14] = system: Staphylococcus aureus ATCC 25923
[15] = system: Bacillus subtilis CMCC 63501
[16] = system: Enterococcus faecalis ATCC 29212
[17] = system: Escherichia coli ATCC 25922
[18] = system: Escherichia coli UB1005
[19] = system: Pseudomonas aeruginosa ATCC 27853
[20] = system: Pseudomonas aeruginosa PAO1
[21] = system: Salmonella enterica subsp. enterica serovar Typhimurium ATCC 14028
[22] = system: Salmonella typhimurium ATCC 7731
[23] = system: Staphylococcus aureus ATCC 29213
[24] = system: Staphylococcus epidermidis ATCC 12228
[25] = system: Aeromonas salmonicida 97-4
[26] = system: Aeromonas salmonicida 99-1
[27] = system: Candida albicans C627
[28] = system: Escherichia coli CGSC 4908
[29] = system: Escherichia coli DC2
[30] = system: Pseudomonas aeruginosa K799
[31] = system: Pseudomonas aeruginosa Z61
[32] = system: Salmonella enterica serovar typhimurium MS7953s
[33] = system: Salmonella enterica subsp. enterica serovar Typhimurium ATCC 14028s
[34] = system: Staphylococcus aureus C623
[35] = system: Staphylococcus epidermidis C621

`CC[C@H](C)[C@H](NC(=O)CNC(=O)CNC(=O)[C@@H](NC(=O)[C@@H]1CCCN1C(=O)[C@H](Cc1ccccc1)NC(=O)[C@H](CCC(N)=O)NC(=O)[C@H](CC(C)C)NC(=O)CNC(=O)[C@H](C)NC(=O)[C@@H](N)CCCN=C(N)N)C(C)C)C(=O)NCC(=O)N[C@@H](CCCCN)C(=O)N[C@@H](Cc1ccccc1)C(=O)N[C@@H](CC(C)C)C(=O)N[C@@H](Cc1cnc[nH]1)C(=O)N[C@@H](CO)C(=O)N[C@@H](C)C(=O)N[C@@H](CCCCN)C(=O)N[C@@H](CCCCN)C(=O)N[C@@H](Cc1ccccc1)C(=O)NCC(=O)N[C@@H](CCCCN)C(=O)O` [RAGLQFPVGGIGKFLHSAKKFGK] showed an MIC [1] of 6.55 µM (≈ 16 µg/mL), an MIC [2] of 1.64 µM (≈ 4 µg/mL) and an MIC [3] of 1.64 µM (≈ 4 µg/mL). For the same compound, the MIC [4] was 6.55 µM (≈ 16 µg/mL), the MIC [5] was 13.1 µM (≈ 32 µg/mL) and the MIC [6] was 1.64 µM (≈ 4 µg/mL). The MIC [7] was 3.27 µM (≈ 8 µg/mL), the MIC [8] was 6.55 µM (≈ 16 µg/mL) and the MIC [9] was 6.55 µM (≈ 16 µg/mL). For the same compound, the MIC [10] was 6.55 µM (≈ 16 µg/mL) and the MIC [11] was 6.55 µM (≈ 16 µg/mL).

`CC[C@H](C)[C@H](NC(=O)[C@H](Cc1ccccc1)NC(=O)[C@H](CC(N)=O)NC(=O)[C@H](Cc1ccc(O)cc1)NC(=O)[C@H](CC(C)C)NC(=O)CN)C(=O)N[C@@H](CCCCN)C(=O)N[C@H](C(=O)N[C@@H](CC(C)C)C(=O)NCC(=O)N[C@@H](CCCN=C(N)N)C(=O)N[C@H](C(=O)N[C@H](C(=O)N[C@@H](Cc1ccccc1)C(=O)NCC(=O)N[C@@H](CC(C)C)C(=O)N[C@@H](Cc1ccc(O)cc1)C(=O)N[C@@H](CCCCN)C(=O)N[C@@H](CCC(N)=O)C(=O)N[C@@H](Cc1ccccc1)C(N)=O)C(C)C)[C@@H](C)O)C(C)C` [GLYNFIKVLGRTVFGLYKQF] gave an MIC [12] of at least 256 µM, an MIC [13] of at least 64 µM and an MIC [14] of 16 µM (≈ 37.8 µg/mL).

`CC[C@H](C)[C@H](NC(=O)[C@H](CCC(=O)O)NC(=O)CNC(=O)[C@@H](NC(=O)[C@H](Cc1ccccc1)NC(=O)[C@H](C)NC(=O)[C@H](CCCCN)NC(=O)CNC(=O)[C@H](Cc1ccccc1)NC(=O)[C@H](CCCCN)NC(=O)[C@H](CCCCN)NC(=O)[C@H](C)N)C(C)C)C(=O)N[C@@H](CCSC)C(N)=O` [AKKFGKAFVGEIM] showed an MIC [15] of at least 64 µM, an MIC [16] of over 64 µM and an MIC [17] of 32 µM (≈ 45.6 µg/mL). It also gave an MIC [18] of at least 64 µM, an MIC [19] of over 64 µM and an MIC [20] of over 64 µM. It also gave an MIC [21] of over 64 µM, an MIC [22] of at least 64 µM and an MIC [23] of over 64 µM. It also gave an MIC [24] of over 64 µM.

`CC(C)C[C@H](NC(=O)CN)C(=O)N[C@@H](CCC(N)=O)C(=O)N[C@@H](Cc1ccccc1)C(=O)N1CCC[C@H]1C(=O)N[C@H](C(=O)NCC(=O)N[C@@H](CCCN=C(N)N)C(=O)N[C@H](C(=O)N[C@@H](Cc1cnc[nH]1)C(=O)N[C@@H](CCCN=C(N)N)C(=O)N[C@@H](CC(C)C)C(=O)N[C@@H](CC(C)C)C(=O)N[C@@H](CCCN=C(N)N)C(=O)N[C@@H](CCCCN)C(=O)O)C(C)C)C(C)C` [GLQFPVGRVHRLLRK] gave an MIC [1] of 2.25 µM (≈ 4 µg/mL), an MIC [2] of 4.5 µM (≈ 8 µg/mL) and an MIC [3] of 4.5 µM (≈ 8 µg/mL). The MIC [4] was 2.25 µM (≈ 4 µg/mL), the MIC [5] was 2.25 µM (≈ 4 µg/mL) and the MIC [6] was 4.5 µM (≈ 8 µg/mL). It also gave an MIC [7] of 1.13 µM (≈ 2 µg/mL), an MIC [8] of 1.13 µM (≈ 2 µg/mL) and an MIC [9] of 4.5 µM (≈ 8 µg/mL). It also gave an MIC [10] of 2.25 µM (≈ 4 µg/mL) and an MIC [11] of 2.25 µM (≈ 4 µg/mL).

For `CC[C@H](C)[C@H](NC(=O)[C@H](C)NC(=O)[C@H](C)NC(=O)[C@H](CCC(N)=O)NC(=O)CNC(=O)[C@H](CC(C)C)NC(=O)[C@H](Cc1cnc[nH]1)NC(=O)[C@H](CCCCN)NC(=O)[C@H](C)NC(=O)CNC(=O)[C@H](CCCCN)NC(=O)[C@H](CCCNC(=N)N)NC(=O)[C@H](CC(C)C)NC(=O)[C@H](Cc1c[nH]c2ccccc12)NC(=O)[C@H](CCCCN)NC(=O)[C@H](CCCCN)NC(=O)[C@H](Cc1c[nH]c2ccccc12)NC(=O)CN)C(=O)N[C@@H](CCCCN)C(=O)NCC(=O)N[C@@H](CC(C)C)C(=O)N[C@@H](C)C(=O)N[C@@H](CO)C(C)=O` [GWKKWLRKGAKHLGQAAIKGLAS], the MIC [25] was 0.399 µM (≈ 0.999 µg/mL), the MIC [26] was 0.798 µM (≈ 2 µg/mL) and the MIC [27] was 3.19 µM (≈ 7.99 µg/mL). For the same compound, the MIC [28] was 0.399 µM (≈ 0.999 µg/mL), the MIC [29] was 0.399 µM (≈ 0.999 µg/mL) and the MIC [18] was 1.6 µM (≈ 4 µg/mL). The MIC [30] was 1.6 µM (≈ 4 µg/mL), the MIC [31] was 0.798 µM (≈ 2 µg/mL) and the MIC [32] was 0.399 µM (≈ 0.999 µg/mL). It also gave an MIC [33] of 3.19 µM (≈ 7.99 µg/mL), an MIC [34] of 6.39 µM (≈ 16 µg/mL) and an MIC [35] of 12.8 µM (≈ 32 µg/mL).

`CC[C@H](C)[C@H](NC(=O)[C@H](C)NC(=O)[C@@H](NC(=O)[C@@H]1CCCN1C(=O)[C@@H](NC(=O)[C@H](CC(C)C)NC(=O)[C@@H]1CCCN1C(=O)[C@H](Cc1c[nH]c2ccccc12)NC(=O)[C@H](Cc1ccccc1)NC(=O)[C@H](CCCN=C(N)N)NC(=O)[C@@H](N)CCCCN)C(C)C)C(C)C)C(=O)N[C@@H](CC(N)=O)C(=O)N[C@H](C(=O)N[C@H](C(=O)N[C@@H](C)C(N)=O)C(C)C)[C@@H](C)O` [KRFWPLVPVAINTVA] gave an MIC [15] of at least 128 µM, an MIC [17] of over 128 µM and an MIC [18] of at least 64 µM. The MIC [19] was over 128 µM, the MIC [21] was over 128 µM and the MIC [22] was at least 128 µM. The MIC [23] was over 128 µM and the MIC [24] was 128 µM (≈ 219 µg/mL).

For `CC[C@H](C)[C@H](NC(=O)[C@H](C)NC(=O)CNC(=O)[C@H](Cc1cnc[nH]1)NC(=O)[C@@H](NC(=O)[C@H](Cc1ccccc1)NC(=O)[C@H](CCCCN)NC(=O)CNC(=O)[C@H](C)NC(=O)[C@H](CCCCN)NC(=O)[C@H](Cc1ccccc1)NC(=O)[C@@H](NC(=O)[C@H](Cc1cnc[nH]1)NC(=O)[C@H](CCCCN)NC(=O)[C@H](Cc1ccccc1)NC(=O)[C@@H](NC(=O)[C@H](CO)NC(=O)CNC(=O)[C@H](Cc1c[nH]c2ccccc12)NC(=O)CNC(=O)[C@H](C)N)[C@@H](C)CC)[C@@H](C)CC)[C@@H](C)CC)C(=O)N[C@@H](CCC(N)=O)C(=O)N[C@@H](C)C(=O)N[C@@H](Cc1cnc[nH]1)C(=O)N[C@@H](CC(N)=O)C(=O)N[C@@H](CC(=O)O)C(C)=O` [AGWGSIFKHIFKAGKFIHGAIQAHND], the MIC [25] was 5.61 µM (≈ 16 µg/mL), the MIC [26] was 11.2 µM (≈ 32 µg/mL) and the MIC [27] was 22.4 µM (≈ 64 µg/mL). The MIC [28] was 5.61 µM (≈ 16 µg/mL), the MIC [29] was 5.61 µM (≈ 16 µg/mL) and the MIC [18] was 5.61 µM (≈ 16 µg/mL). The MIC [30] was 11.2 µM (≈ 32 µg/mL), the MIC [31] was 2.81 µM (≈ 7.99 µg/mL) and the MIC [32] was 5.61 µM (≈ 16 µg/mL). It also gave an MIC [33] of 22.4 µM (≈ 64 µg/mL), an MIC [34] of 5.61 µM (≈ 16 µg/mL) and an MIC [35] of 5.61 µM (≈ 16 µg/mL).
